Test results: patent US7538220B2, “Intermediates in the preparation of homocamptothecin analogs” (University of Pittsburgh - of the Commonwealth System of …, priority 1999, dated 2009)

What was measured:
[1] = Fluorescence anisotropy titration, equilibrium binding to DMPC small unilamellar vesicles; assay type: physicochemical; conditions: for KDMPC overall association constant: electroneutral DMPC vesicles, PBS pH 7.4, 37° C., K values subject to 10% uncertainty
Description: As a consequence of the brilliant fluorescence emissions from the newly synthesized homosilatecans (a summary of the spectral parameters can be found in Table 1), the lipid bilayer adsorption isotherms summarized in FIG. 4 were relatively free from any background signal. The method of fluorescence anisotropy titration was used to construct the adsorption isotherms. The experiments were conducted at drug concentrations of 1 μM in PBS buffer (37° C.). […] Because of the potential of the lactone ring of the homosilatecans and camptothecins to hydrolyze in PBS, anisotropy values at each lipid concentration were determined immediately (approx. 1 min.) following the addition of the lactone form of each agent to the liposome suspension as to minimize any possibility of conversion to the carboxylate form. Using drug concentrations of 1 μM and long pass filters to isolate emitted light from background signal (that is, scattered exciting light and extraneous fluorescence signal resulting from the possible presence of impurities), signal levels from drugs dissolved in PBS buffer were typically 99.97% in the absence of membrane and greater than 98% in the presence of membrane. Adsorption isotherms were used to determine overall association constants for the homosilatecan, silatecan, and camptothecin drugs. Overall association constants are defined as: K=[AB]/[AF][L] where [AB] represents the concentration of bound drug, [AF] represents the concentration of free drug, and [L] represents the total lipid concentration in the vesicle suspension. This equation is valid when the concentration of free lipid is approximately equal to the concentration of total lipid (that is, the concentration of free lipid is in significant excess over the concentration of bound drug). Provided this condition is satisfied, K may be determined from the inverse of the slope of a double reciprocal plot. In such a double reciprocal plot, 1/fraction of the total drug bound is plotted vs. 1/lipid concentration, with a y-intercept value of 1 (for a system displaying binding site homogeneity). Such double-reciprocal plots for the associations of the new homosilatecans analogs (both lactone and carboxylate forms) with DMPC and DMPG small unilamellar vesicle (SUV) preparations were linear with good correlation coefficients.
The studies summarized in Table 2 examine the structural basis of homosilatecan associations for lipid bilayers. Two types of membranes were included in these studies which were conducted under near physiological conditions of pH and temperature; these membranes include fluid-phase and electroneutral L-α-dimyristoylphosphatidyl-choline (DMPC); and fluid-phase and negatively-charged L-α-dimyristoylphosphatidylglycerol (DMPG). DMPC and DMPG have identical chain length but the charges on their head groups differ.
In the studies of Table 2, binding isotherms were constructed using the method of fluorescence anisotropy titration as discussed above, and K values were determined from the slopes of the double-reciprocal plots. The K values are subject to 10% uncertainty. One of the most striking features of the data contained in Table 2 is the strong modulation which can be achieved through the creation of A,B,E-ring modified camptothecins (for example, the homosilatecans known as DB-38, DB-90, and DB-91) or B,E-ring modified camptothecins (for example, the homosilatecan known as DB-81). Homosilatecans containing either a sole substitution at the 7 position or dual substitution at the 7 and 10 positions have been created and found to display very high lipophilicities. Included in Table 2 are camptothecin compounds (topotecan and camptothecin). For DB-81, the lipophilicity for DMPC membranes relative to corresponding value for topotecan increases over 1,400-fold. Data for these agents were included to show the highly lipophilic nature of the new homocamptothecins relative to compounds such as topotecan and camptothecin. […]

[2] = Lactone ring stability in PBS containing human serum albumin by HPLC; assay type: in vitro ADME; conditions: PBS with 30 mg/ml HSA, 37° C., 1 μM
Description: FIG. 13 depicts the improved stabilities of four novel homosilatecans of the current invention following incubation in PBS containing 30 mg/ml human serum albumin at 37° C. […] All the experiments of FIG. 14 were conducted in human plasma at 37° C. Plasma samples were continuously aerated by a stream of blood gas resulting in the maintenance of pH at values of 7.5±0.1.
(§1) HPLC solvents were from Fisher Scientific.
To study the stabilities of homosilatecans in PBS containing human serum albumin (HSA), the HSA was dissolved in PBS, pH 7.4 at the concentration of 30 mg/ml and incubated at 37° C. The pH was measured and adjusted to 7.4+/−0.5 using 0.1 M KOH or 0.1 M HCl. Incubation continued until pH stabilized within the target range. An aliquot of PBS/HSA was removed and placed in an autosampler vial and maintained at 37° C. for 10 min. An aliquot of the drug in DMSO was added to the sample resulting in a final drug concentration of 1 μM. The vial was quickly added to the HPLC autosampler maintained at 37° C. and aliquots were injected and analyzed by HPLC at different time points. The data analysis was as described above for the drug in PBS only samples.

[3] = Lactone ring stability in PBS suspensions of albumin-free red blood cells by HPLC; assay type: in vitro ADME, human; conditions: albumin-free RBC in PBS (5±1)×10^6 cell/μL, 37° C.
Description: FIG. 15 depicts the stabilities of four novel homosilatecans of the current invention in PBS suspensions containing physiologically-relevant concentrations [(5±1)×10^6 cell/μL] of albumin-free red blood cells. Stability characteristics were determined at 37° C. using HPLC methods.
as §1
To study the stabilities of the novel homosilatecans in the presence of physiologically relevant concentrations of red blood cells (RBC), the following experiments were performed. Packed Red blood cells obtained from the Central Kentucky Red Cross and were counted using a Coulter Cell Counter. The number of cells was adjusted to 5×10^12 Cells/L using PBS, pH 7.4 and incubated at 37° C. for 30 min. […] RBCs were incubated at 37° C. for 30 min and the pH remeasured to ensure that it was within the same range as before the assays were started. […] Aliquots of drug in DMSO were added to RBC suspensions in PBS to result in final drug concentration of 1 μM. […] The sample was analyzed on HPLC as soon as possible.

[4] = Lactone ring stability in whole human blood by HPLC; conditions: for Percent Lactone in Human Blood after 3 Hours of Incubation: pH 7.4, 37° C. (Table 4); for % Lactone: whole human blood, 1 μM
Description: All experiments were conducted at pH 7.4 and 37° C.
as §1

In the case of `CCC1(O)CC(=O)OCc2c1cc1n(c2=O)Cc2c-1nc1ccc(N)cc1c2[Si](C)(C)C` (racemic) [DB-38, 5-Ethyl-1,4,5,13-tetrahydro-5-hydroxy-10-amino-12-trimethylsilyl-3H,15H-oxepino[3′,4′:6,7]indolizino[1,2-b]quinoline-3,15-dione], the “KDMPC overall association constant” value [1] is reported as 1400 M⁻¹, the “% Lactone” value ([2]; 3 hours) is reported as 81.4 ± 0.3% and the “% Lactone” value ([2]; 24 hours) is reported as 34.1 ± 2.2%. For the same compound, the “% Lactone” value ([3]; 3 hours) was 84.8 ± 1.5%, the “% Lactone” value ([3]; 24 hours) was 39.4 ± 1.2% and the “Percent Lactone in Human Blood after 3 Hours of Incubation” value (“Percent Lactone in Human Blood” below) [4] was 56%. The “% Lactone” value ([4]; 3 hours incubation, pH 7.4, 37° C.) was 56.4 ± 0.6%.

For `CCC1(O)CC(=O)OCc2c1cc1n(c2=O)Cc2c-1nc1ccccc1c2[Si](C)(C)C(C)(C)C` (racemic) [DB-81, 5-Ethyl-1,4,5,13-tetrahydro-5-hydroxy-12-tert-butyldimethylsilyl-3H,15H-oxepino[3′,4′:6,7]indolizino[1,2-b]quinoline-3,15-dione], the “increase of lipophilicity for DMPC membranes relative to topotecan” value ([1]; 1 μM, pH 7.4) was “over 1,400 fold”, the “KDMPC overall association constant” value [1] was 14400 M⁻¹ and the “% Lactone” value ([2]; 3 hours) was 88.1 ± 0.2%. For the same compound, the “% Lactone” value ([2]; 24 hours) was 42.5 ± 1.6%, the “% Lactone” value ([3]; 3 hours) was 92.0 ± 0.0% and the “% Lactone” value ([3]; 24 hours) was 55.8 ± 1.7%. For the same compound, the “Percent Lactone in Human Blood” value [4] was 87% and the “% Lactone” value ([4]; 24 hours incubation, 37° C.) was 27.0 ± 2.3%.

For `CCC1(O)CC(=O)OCc2c1cc1n(c2=O)Cc2c-1nc1ccc(N)cc1c2[Si](C)(C)C(C)(C)C` (racemic) [DB-90, 5-Ethyl-1,4,5,13-tetrahydro-5-hydroxy-10-amino-12-tert-butyldimethylsilyl-3H,15H-oxepino[3′,4′:6,7]indolizino[1,2-b]quinoline-3,15-dione], the “decrease in DMPC binding upon ring opening (lactone vs carboxylate)” value [1] was 10 fold, the “KDMPC overall association constant” value [1] was 8600 M⁻¹ and the “% Lactone” value ([2]; 3 hours) was 86.8 ± 0.2%. The “% Lactone” value ([2]; 24 hours) was 42.0 ± 2.7%, the “% Lactone” value ([3]; 3 hours) was 85.5 ± 0.4% and the “% Lactone” value ([3]; 24 hours) was 38.5 ± 1.4%. For the same compound, the “Percent Lactone in Human Blood” value [4] was 85% and the “% Lactone” value ([4]; 24 hours incubation, 37° C.) was 24.6 ± 1.3%.

For `CCC1(O)CC(=O)OCc2c1cc1n(c2=O)Cc2c-1nc1ccc(O)cc1c2[Si](C)(C)C(C)(C)C` (racemic) [DB-91, 5-Ethyl-1,4,5,13-tetrahydro-5-hydroxy-10-hydroxy-12-tert-butyldimethylsilyl-3H,15H-oxepino[3′,4′:6,7]indolizino[1,2-b]quinoline-3,15-dione], the “decrease in DMPC binding upon ring opening (lactone vs carboxylate)” value [1] was 10 fold, the “% Lactone” value ([2]; 3 hours) was 82.9 ± 0.3% and the “% Lactone” value ([2]; 24 hours) was 33.2 ± 3.0%. The “% Lactone” value ([3]; 3 hours) was 88.5 ± 0.2%, the “% Lactone” value ([3]; 24 hours) was 42.6 ± 2.6% and the “Percent Lactone in Human Blood” value [4] was 85%. For the same compound, the “% Lactone” value ([4]; 24 hours incubation, 37° C.) was 37.1 ± 1.8%.
